The supplement of paper PMC4862054

How the values were obtained:
Details in all cases: incubation time: 72 h
BT-474 [1] = assay: normalised response (% of control), CellTox Green; higher = less cell death (100 = DMSO, 0 = benzethonium chloride kill control)
Method in brief: (§1)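 Plates were normalised with 0.1 % DMSO as 100 and a positive kill control as 0. Breast cancer cell lines in 20 µl suspension had been seeded into 384-well plates with compound at 5 concentrations in 10-fold steps over a compound-specific 10,000-fold range, incubated 72 h, and read for CellTox Green fluorescence (485/520 nm) followed by CellTiter-Glo luminescence. Each value is the normalised signal at a single concentration.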

BT-549 [2] = assay: as above
Method in brief: as §1

CAL-120 [3] = assay: as above
Method in brief: as §1

CAL-148 [4] = assay: as above
Method in brief: as §1

CAL-51 [5] = assay: as above
Method in brief: as §1

CAL-85-1 [6] = assay: as above
Method in brief: as §1

DU-4475 [7] = assay: as above
Method in brief: as §1

HCC1143 [8] = assay: as above
Method in brief: as §1

HCC1599 [9] = assay: as above
Method in brief: as §1

HCC1937 [10] = assay: as above
Method in brief: as §1

HDQ-P1 [11] = assay: as above
Method in brief: as §1

Hs578T [12] = assay: as above
Method in brief: as §1

MCF-10A [13] = assay: as above
Method in brief: as §1

MDA-MB-231 [14] = assay: as above
Method in brief: as §1

MDA-MB-436 [15] = assay: as above
Method in brief: as §1

MDA-MB-453 [16] = assay: as above
Method in brief: as §1

MDA-MB-468 [17] = assay: as above
Method in brief: as §1

MFM-223 [18] = assay: as above
Method in brief: as §1

BT-474 [19] = assay: normalised response (% of control), CellTiter-Glo; higher = more viable cells (100 = DMSO, 0 = benzethonium chloride kill control)
Protocol: (§2)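 DSRT, 72 h incubation, CellTox Green / CellTiter-Glo readout. Signal is normalised to DMSO and benzethonium chloride controls. Value is the normalised response at dose 3.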

BT-549 [20] = assay: as above
Protocol: as §2

CAL-120 [21] = assay: as above
Protocol: as §2

CAL-148 [22] = assay: as above
Protocol: as §2

CAL-51 [23] = assay: as above
Protocol: as §2

CAL-85-1 [24] = assay: as above
Protocol: as §2

DU-4475 [25] = assay: as above
Protocol: as §2

HCC1143 [26] = assay: as above
Protocol: as §2

HCC1599 [27] = assay: as above
Protocol: as §2

HCC1937 [28] = assay: as above
Protocol: as §2

HDQ-P1 [29] = assay: as above
Protocol: as §2

Hs578T [30] = assay: as above
Protocol: as §2

MCF-10A [31] = assay: as above
Protocol: as §2

MDA-MB-231 [32] = assay: as above
Protocol: as §2

MDA-MB-436 [33] = assay: as above
Protocol: as §2

MDA-MB-453 [34] = assay: as above
Protocol: as §2

MDA-MB-468 [35] = assay: as above
Protocol: as §2

MFM-223 [36] = assay: as above
Protocol: as §2

SK-BR-3 = assay: as above
Protocol: as §2

| SMILES | normalised response (BT-474 [1]) [%] | normalised response (BT-549 [2]) [%] | normalised response (CAL-120 [3]) [%] | normalised response (CAL-148 [4]) [%] | normalised response (CAL-51 [5]) [%] | normalised response (CAL-85-1 [6]) [%] | normalised response (DU-4475 [7]) [%] | normalised response (HCC1143 [8]) [%] | normalised response (HCC1599 [9]) [%] | normalised response (HCC1937 [10]) [%] | normalised response (HDQ-P1 [11]) [%] | normalised response (Hs578T [12]) [%] | normalised response (MCF-10A [13]) [%] | normalised response (MDA-MB-231 [14]) [%] | normalised response (MDA-MB-436 [15]) [%] | normalised response (MDA-MB-453 [16]) [%] | normalised response (MDA-MB-468 [17]) [%] | normalised response (MFM-223 [18]) [%] | normalised response (BT-474 [19]) [%] | normalised response (BT-549 [20]) [%] | normalised response (CAL-120 [21]) [%] | normalised response (CAL-148 [22]) [%] | normalised response (CAL-51 [23]) [%] | normalised response (CAL-85-1 [24]) [%] | normalised response (DU-4475 [25]) [%] | normalised response (HCC1143 [26]) [%] | normalised response (HCC1599 [27]) [%] | normalised response (HCC1937 [28]) [%] | normalised response (HDQ-P1 [29]) [%] | normalised response (Hs578T [30]) [%] | normalised response (MCF-10A [31]) [%] | normalised response (MDA-MB-231 [32]) [%] | normalised response (MDA-MB-436 [33]) [%] | normalised response (MDA-MB-453 [34]) [%] | normalised response (MDA-MB-468 [35]) [%] | normalised response (MFM-223 [36]) [%] | normalised response (SK-BR-3) [%] |
| --- | --- | --- | --- | --- | --- | --- | --- | --- | --- | --- | --- | --- | --- | --- | --- | --- | --- | --- | --- | --- | --- | --- | --- | --- | --- | --- | --- | --- | --- | --- | --- | --- | --- | --- | --- | --- | --- |
| COC(=O)C[C@](O)(CCCC(C)(C)O)C(=O)O[C@@H]1C(OC)=C[C@]23CCCN2CCc2cc4c(cc2[C@H]13)OCO4 [Omacetaxine] (100 nM) | 98.3 | 103 | 99.4 | 83.4 | 121 | 10.6 | 97.5 | 72.7 | 112 | 124 | 100 | 38.3 | 97.1 | 92.3 | 77.6 | 110 | 113 | 48.9 | 74.6 | 18.8 | 59 | 40.9 | 19.9 | 6.28 | 4.3 | 44.4 | 24.4 | 41.1 | 31 | 28.2 | 61.5 | 65 | 20 | 56.4 | 15.3 | 55.4 | 44.9 |
| COc1ccc(C2=N[C@@H](c3ccc(Cl)cc3)[C@@H](c3ccc(Cl)cc3)N2C(=O)N2CCNC(=O)C2)c(OC(C)C)c1 [Nutlin-3] (100 nM) | 71.6 | 99 | 102 | 97.2 | 97.1 | 102 | 102 | 109 | 102 | 87.5 | 97.3 | 101 | 103 | 100 | 64 | 97.3 | 100 | 95.2 | 101 | 107 | 99.5 | 115 | 64 | 92.4 | 104 | 105 | 105 | 95.4 | 99.9 | 103 | 96.7 | 102 | 102 | 108 | 100 | 102 | 104 |
| CS(=O)(=O)OCCCCOS(C)(=O)=O [Busulfan] (1000 nM) | 100 | 96.5 | 97.8 | 96.1 | 109 | 101 | 101 | 97.8 | 103 | 107 | 83.3 | 105 | 59.8 | 104 | 90.6 | 103 | 121 | 102 | 98.9 | 109 | 102 | 107 | 90.4 | 104 | 108 | 105 | 98.9 | 96.2 | 103 | 108 | 108 | 105 | 94.2 | 111 | 97.2 | 106 | 110 |
| C[C@@H]1CCN(C(=O)CC#N)C[C@@H]1N(C)c1ncnc2[nH]ccc12 [Tofacitinib] (50 nM) | 103 | 94.2 | 99.7 | 90.6 | 113 | 99.7 | 102 | 104 | 116 | 123 | 114 | 93.4 | 105 | 104 | 97.8 | 103 | 127 | 107 | 102 | 104 | 99.8 | 114 | 88.1 | 109 | 106 | 106 | 105 | 96.5 | 104 | 109 | 101 | 104 | 98.7 | 102 | 110 | 110 | 104 |
| C[C@@]1(C(=O)Nc2ccc(F)nc2)CCCN1c1nc(Nc2cc(C3CC3)n[nH]2)c2cccn2n1 (100 nM) | 95.3 | 90.2 | 100 | 96.3 | 104 | 85.8 | 94.4 | 87.5 | 98 | 103 | 89 | 89.5 | 76.1 | 78.5 | 99.2 | 95.8 | 71.9 | 104 | 79.5 | 86.5 | 82.9 | 102 | 106 | 74.9 | 82.2 | 91.9 | 82.8 | 90.7 | 64.2 | 92.7 | 28.7 | 79.8 | 86.9 | 80 | 87.8 | 84.5 | 83.2 |
| Cn1cnc2c(F)c(Nc3ccc(Br)cc3F)c(C(=O)NOCCO)cc21 [MEK-162] (10 nM) | 90.8 | 82.7 | 97.6 | 103 | 112 | 99.8 | 97.6 | 73 | 93 | 78.5 | 102 | 108 | 68.5 | 81.9 | 99.8 | 104 | 125 | 102 | 103 | 94.5 | 97.9 | 101 | 114 | 95.2 | 92.9 | 94.8 | 93.8 | 90.8 | 88.9 | 90.5 | 70.8 | 99.3 | 103 | 105 | 93 | 99.4 | 101 |
| COc1cccc2c1C(=O)c1c(O)c3c(c(O)c1C2=O)C[C@@](O)(C(C)=O)C[C@@H]3O[C@H]1C[C@H](N)[C@H](O)[C@H](C)O1 [Daunorubicin] (10 nM) | 102 | 104 | 102 | 91.5 | 91.5 | 98.8 | 103 | 104 | 98.9 | 106 | 106 | 111 | 104 | 76 | 93.4 | 107 | 90.3 | 105 | 102 | 103 | 103 | 99.3 | 87.2 | 100 | 106 | 97 | 99.1 | 93.2 | 96.5 | 104 | 105 | 103 | 99.4 | 110 | 84.2 | 105 | 112 |
| COc1cc(Nc2ncc(F)c(Nc3ccc4c(n3)NC(=O)C(C)(C)O4)n2)cc(OC)c1OC [Tamatinib] (100 nM) | 101 | 94.5 | 103 | 73.6 | 115 | 113 | 104 | 90.7 | 99.2 | 93.6 | 107 | 112 | 107 | 105 | 104 | 109 | 83.2 | 91.3 | 101 | 98.9 | 96.2 | 112 | 104 | 96.7 | 105 | 105 | 123 | 103 | 97.9 | 102 | 104 | 108 | 99 | 108 | 93.8 | 110 | 111 |
